Measurements published in US20240041047A1, “ENHANCED ANTIMICROBIAL EFFICACY (SYNERGY) OF SILVER AND COPPER COMPOUNDS AND MEDICAL USE OF THEIR COMBINATIONS” (Nanordica Medical OÜ, priority 2021, published 2024).

Legend:
[1] = system: Gram-negative and Gram-positive bacteria commonly colonizing wounds; assay: Antibacterial synergy K(Syn) of Ag and Cu compounds across bacterial strains (FIG. 3, FIG. 5); format: cell-based
Method: FIGS. 3A and 3B show the synergistic effect of CuO NPs and CuSO4 with Ag NPs (A) or AgNO3 (B) to a range of Gram-negative and Gram-positive bacteria commonly colonizing wounds. Bacterial suspension was incubated with Ag NPs, CuO NPs, respective ions or their combinations for 24 h, plated on agarized broth, and MBC was determined.
In order to quantify and compare the synergistic effect between different Ag and Cu compounds and among various bacterial strains, we introduced the term “Coefficient of antimicrobial synergy”, K(Syn), showing the antimicrobial efficiency of Ag compound and Cu compound combinations (mix) compared to the sum of the MBC values of individual compounds and calculated as follows: […]
In order to quantify and compare the synergistic effect between different Ag NPs and Copper compounds among various bacterial strains, we introduced the term “Coefficient of antibacterial synergy”, K(Syn), showing the antimicrobial efficiency of Ag- and copper compound combinations (mix) compared to the sum of the MBC values of individual Ag- and Cu compounds and calculated as follows: […]
Bacterial suspensions were incubated with Ag NPs, CuO NPs, respective ions or their combinations for 24 h, plated on agarized broth, and MBC was determined. […]

E. coli K-12 (G−) = assay: MBC of Ag NPs, Cu compounds and combinations, 24 h incubation, plated on agarized broth; format: cell-based, Escherichia coli
E. coli ESBL (G−) = assay: as above; format: cell-based, Escherichia coli
P. aeruginosa PAO1 (G−) = assay: as above; format: cell-based, Pseudomonas aeruginosa
[2] = system: S. aureus ATCC 25923 (G+); assay: as above; format: cell-based, Staphylococcus aureus
[3] = system: E. faecalis ATCC 29212 (G+); assay: as above; format: cell-based, Enterococcus faecalis
[4] = system: S. dysgalacticae DSM 23147 (G+); assay: as above; format: cell-based

SMILES: O=[N+]([O-])[O-].[Ag+] [AgNO3, reference compound]
- synergistic effect with Cu compounds compared with Ag NPs ([1]; ionic silver used instead of Ag NPs (FIG. 3B)): considerably lower

SMILES: O=S(=O)([O-])[O-].[Cu+2] [CuSO4]
- K (Syn) (E. coli K-12 (G−); E. coli K-12, Cu compound + Ag NPs): 5.055 ± 0.383
- MBC (CuX) in combination (E. coli K-12 (G−); E. coli K-12, Cu compound in combination with Ag NPs): 22.5 ± 16.3 µg/mL
- MBC alone (E. coli K-12 (G−); E. coli K-12, compound alone): 217.6 ± 72.8 µg/mL
- K (Syn) (E. coli ESBL (G−); Cu compound + Ag NPs): 4.727 ± 0.63
- MBC (CuX) in combination (E. coli ESBL (G−); Cu compound in combination with Ag NPs): 25 ± 0 µg/mL
- MBC alone (E. coli ESBL (G−); compound alone): 200 ± 0 µg/mL
- K (Syn) (P. aeruginosa PAO1 (G−); P. aeruginosa PAO1, Cu compound + Ag NPs): 2.783 ± 0.687
- MBC (CuX) in combination (P. aeruginosa PAO1 (G−); P. aeruginosa PAO1, Cu compound in combination with Ag NPs): 20 ± 6.85 µg/mL
- MBC alone (P. aeruginosa PAO1 (G−); P. aeruginosa PAO1, compound alone): 720 ± 178.9 µg/mL
- K (Syn) ([2]; S. aureus ATCC 25923, Cu compound + Ag NPs): 3.659 ± 1.083
- MBC (CuX) in combination ([2]; S. aureus ATCC 25923, Cu compound in combination with Ag NPs): 16.25 ± 8.39 µg/mL
- MBC alone ([2]; S. aureus ATCC 25923, compound alone): 90 ± 22.36 µg/mL
- K (Syn) ([3]; E. faecalis ATCC 29212, Cu compound + Ag NPs): 4.254 ± 0.977
- MBC (CuX) in combination ([3]; E. faecalis ATCC 29212, Cu compound in combination with Ag NPs): 20.83 ± 7.22 µg/mL
- MBC alone ([3]; E. faecalis ATCC 29212, compound alone): 200 ± 0 µg/mL
- K (Syn) ([4]; S. dysgalacticae DSM 23147, Cu compound + Ag NPs): 3.909 ± 0.832
- MBC (CuX) in combination ([4]; S. dysgalacticae DSM 23147, Cu compound in combination with Ag NPs): 12.5 ± 0 µg/mL
- MBC alone ([4]; S. dysgalacticae DSM 23147, compound alone): 133.3 ± 57.7 µg/mL
- synergy with Ag NPs, K(Syn), ranking among Cu compounds ([1]; all tested bacterial strains (FIG. 3A)): highest
